Assay results as given in paper PMC11378297, “Discovery and Profiling of New Multimodal Phenylglycinamide Derivatives as Potent Antiseizure and Antinociceptive Drug Candidates” (ACS Chemical Neuroscience, 2024).
Where two headings read alike, the source gives them in different places.

Legend:
[1] = tested on: 6 Hz (32 mA) seizures, mice; test: 6 Hz (32 mA) psychomotor seizure test; assay type: in vivo; settings: Mus musculus, ip, 100 mg/kg i.p., 0.5 h;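 further: compounds given as one i.p. dose suspended in 1% aqueous Tween 80, with the 6 Hz (32 mA) model considered to reflect focal epilepsy in humans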
[2] = molecular target: T1, TRPV1 (VR1) (h) (Homo sapiens, UniProt Q8NER1); test: TRPV1 (VR1) (h) (antagonist effect); assay type: cell-based; settings: 100 µM, human recombinant CHO cells; read-out: % Inhibition of control agonist response
T1 construct: host or cells: CHO cells
Experimental: Further in vitro functional studies confirmed TRPV1 antagonist activity for (R)-31–(R)-33.
Using previously described testing methodologies, binding/functional tests were conducted on a commercial basis at Eurofins Laboratories (Poitiers, France) and Eurofins Panlabs Discovery Services Taiwan, Ltd. (New Taipei City, Taiwan); see Table S9 for more information.
Table S9. Radioligand binding and functional assays. […]
TRPV1 (VR1) (h) (antagonist effect) […]
Assays were performed commercially in Eurofins Laboratories (Poitiers, France) or Eurofins Panlabs Discovery Services
Taiwan, Ltd. (New Taipei City, Taiwan).

[3] = tested on: maximal electroshock (MES) seizures, mice; test: maximal electroshock (MES) seizure test; assay type: in vivo; settings: Mus musculus, ip; 100 mg/kg i.p., 0.5 h, mice; read-out: MES: number of mice protected/number of mice tested (converted)
[4] = four mice, read-out: protection in the 6 Hz (32 mA) test
[5] = mice, read-out: 6 Hz (32 mA): number of mice protected/number of mice tested (converted)

T1 sequence (Q8NER1 whole entry): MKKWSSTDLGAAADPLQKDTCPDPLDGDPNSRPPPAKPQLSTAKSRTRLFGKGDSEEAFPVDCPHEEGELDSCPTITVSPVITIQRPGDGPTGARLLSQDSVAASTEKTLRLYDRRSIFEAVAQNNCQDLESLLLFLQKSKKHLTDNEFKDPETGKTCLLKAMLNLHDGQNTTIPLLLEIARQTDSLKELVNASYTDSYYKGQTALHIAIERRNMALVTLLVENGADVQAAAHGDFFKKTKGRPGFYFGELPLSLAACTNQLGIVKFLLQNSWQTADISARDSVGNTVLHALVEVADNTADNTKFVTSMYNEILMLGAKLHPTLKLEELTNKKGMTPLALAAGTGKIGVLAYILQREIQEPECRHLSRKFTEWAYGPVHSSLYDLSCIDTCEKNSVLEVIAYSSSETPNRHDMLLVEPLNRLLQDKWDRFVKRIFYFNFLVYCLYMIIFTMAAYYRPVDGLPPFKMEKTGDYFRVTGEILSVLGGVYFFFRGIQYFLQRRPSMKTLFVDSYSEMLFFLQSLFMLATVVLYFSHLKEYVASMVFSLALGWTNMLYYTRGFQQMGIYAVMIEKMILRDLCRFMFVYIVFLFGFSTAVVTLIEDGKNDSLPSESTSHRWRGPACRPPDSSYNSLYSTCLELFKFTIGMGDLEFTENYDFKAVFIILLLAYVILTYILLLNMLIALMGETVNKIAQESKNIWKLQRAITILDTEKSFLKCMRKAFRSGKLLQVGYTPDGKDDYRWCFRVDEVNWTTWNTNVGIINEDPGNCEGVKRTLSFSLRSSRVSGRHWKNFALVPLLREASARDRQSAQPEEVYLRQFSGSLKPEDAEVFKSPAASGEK

Structure (SMILES) | melting point [°C] | inhibition at 100 µM [2] [%] | responders at 100 mg/kg [1, 4] [%] | responders at 100 mg/kg [1, 5] [%] | responders at 100 mg/kg [3] [%]
CC(=O)NC(C(=O)NC1CCN(c2cccc(SC(F)(F)F)c2)C1)c1ccccc1 (stereo not drawn) [Compound 24, 2-Acetamido-2-phenyl-N-(1-(3-((trifluoromethyl)thio)phenyl)pyrrolidin-3-yl)acetamide] | 168.8 to 169.7 | 1.3 | 25 | 25 | 0
O=C(NC(C(=O)N1CCN(c2cccc(C(F)(F)F)c2)CC1)c1ccccc1)c1ncccc1C(F)(F)F (stereo not drawn) [Compound 10, N-(2-Oxo-1-phenyl-2-(4-(3-(trifluoromethyl)phenyl)piperazin-1-yl)ethyl)-3-(trifluoromethyl)picolinamide] |  | -3.5 |  | 50 | 0
CC(=O)NC(C(=O)NC1CCN(c2ccccc2)C1)c1ccccc1 (stereo not drawn) [Compound 21, 2-Acetamido-2-phenyl-N-(1-phenylpyrrolidin-3-yl)acetamide] | 189.7 to 190.5 | 4.2 |  | 0 | 0
CC(=O)N[C@H](C(=O)N1CCN(c2cccc(SC(F)(F)F)c2)CC1)c1ccccc1 [(S)-33, (S)-N-(2-Oxo-1-phenyl-2-(4-(3-((trifluoromethyl)thio)phenyl)piperazin-1-yl)ethyl)acetamide] |  |  | 75 | 75 | 25
CC(=O)N[C@H](C(=O)N1CCN(c2cccc(OC(F)(F)F)c2)CC1)c1ccccc1 [(S)-32, (S)-N-(2-Oxo-1-phenyl-2-(4-(3-(trifluoromethoxy)phenyl)piperazin-1-yl)ethyl)acetamide] |  |  | 75 | 75 | 25
O=C(NC(C(=O)N1CCN(c2cccc(C(F)(F)F)c2)CC1)c1ccccc1)c1cccc(C(F)(F)F)c1 (stereo not drawn) [Compound 8, N-(2-Oxo-1-phenyl-2-(4-(3-(trifluoromethyl)phenyl)piperazin-1-yl)ethyl)-3-(trifluoromethyl)benzamide] | 143.2 to 144.1 | -6.1 |  | 0 | 0

Second part, led by results:

melting point [°C] | inhibition at 100 µM [2] [%] | Structure (SMILES) | responders at 100 mg/kg [1, 4] [%] | responders at 100 mg/kg [1, 5] [%] | responders at 100 mg/kg [3] [%]
203.7 to 204.4 | -8.4 | CC(=O)NC(C(=O)NC1CCN(c2cccc(C(F)(F)F)c2)C1)c1ccccc1 (stereo not drawn) [Compound 22, 2-Acetamido-2-phenyl-N-(1-(3-(trifluoromethyl)phenyl)pyrrolidin-3-yl)acetamide] | 50 | 50 | 0
134.8 to 135.9 | 14.4 | O=C(NC(C(=O)N1CCN(c2cccc(C(F)(F)F)c2)CC1)c1ccccc1)c1ccccc1Cl (stereo not drawn) [Compound 4, 2-Chloro-N-(2-oxo-1-phenyl-2-(4-(3-(trifluoromethyl)phenyl)piperazin-1-yl)ethyl) Benzamide] |  | 0 | 0
109.8 to 110.6 |  | CC(=O)N[C@H](C(=O)N1CCN(c2cccc(C(F)(F)F)c2)CC1)c1ccccc1 [(S)-31, (S)-N-(2-Oxo-1-phenyl-2-(4-(3-(trifluoromethyl)phenyl)piperazin-1-yl)ethyl)acetamide] | 50 | 50 | 25
146.5 to 147.2 | -1.2 | O=C(NC(C(=O)N1CCN(c2cccc(C(F)(F)F)c2)CC1)c1ccccc1)c1ccc(C(F)(F)F)cn1 (stereo not drawn) [Compound 12, N-(2-Oxo-1-phenyl-2-(4-(3-(trifluoromethyl)phenyl)piperazin-1-yl)ethyl)-5-(trifluoromethyl)picolinamide] |  | 50 | 0
